Series [1] is described as follows: Metabolic Stability in Guinea Pig Liver S9. Type of series: in vitro ADME. Particulars: guinea pig liver S9, 10 μM initial, 37° C. Here is the method: (§1) Evaluation of metabolism in human and guinea pig liver
(§2) One skilled in the art can determine the metabolic stability for the compounds of the present invention by determining the rate of disappearance of the test compound in vitro in liver extracts. Metabolic stability is inversely related to the rate of metabolism which can be evaluated by determining the rate of disappearance of the test compounds during the initial linear phase of this assay.
(§3) This method is carried out using either S9 or S10 liver supernatant obtained from either guinea pig or human liver. Guinea pig liver S9 can be purchased from Vitro Technologies, Baltimore, Md. and human liver S9 can be purchased from IIAM, Eaton Pa. Both guinea pig and human S10 supernatant can be prepared as follows: Combine weighed liver (fresh or stored at -80° C. until use) and 1.15% aqueous potassium chloride solution (10-15 mL) and homogenize using a PCU Poltron from Kinematics of Switzerland or equivalent. Combine the homogenate with 1.15% aqueous potassium chloride solution, sufficient so that 3 mL of solution (total) is used per […] of liver, and mix. Store the above homogenate on ice at all times prior to use and at -80° C. for long term storage.
(§4) Centrifuge a 20 mL volume of the homogenate at 12,500 rpm (10,000×gravity) at 3° C. After 20 minutes, remove the cover of white lipid protein, if present, and transfer the supernatant to a clean centrifuge tube. Centrifuge the supernatant at 12,500 (10,000×gravity) at 3° C. for 20 minutes before transfer to a clean storage vessel to give the S10 supernatant. Store the S10 supernatant on ice or at -80° C. for long term storage.
(§5) Prepare a stock solution of each test compound in methanol, such that 0.1 mL of the stock solution when spiked into 16 mL of incubation mixture yields an initial concentration of 10 μM of the test compound. Using this method the methanol content of the final incubation mixture will not exceed 1%.
(§6) Prepare the incubation mixture by combining in an incubation beaker S9 or S10 supernatant (4 mL); an aqueous solution containing 1.1 mM NADP, […] (4 units/2 mL)(0.32 mL); and an aqueous 0.1M dipotassium monohydrogen phosphate solution (7.58 mL). Incubate the test compound by adding 0.1 mL of the stock solution of test compound to an incubation mixture, placed in a shaking water bath at 37° C.
(§7) To determine the rate of disappearance of test compounds in this assay, remove triplicate aliquots (0.5 mL) from the incubation beaker at 1, 3, 5, 10, 15, 30, and 60 minutes. Freeze all aliquots in a hexane/dry-ice slurry to instantly deactivate the enzymes. Store at -70° C. until assayed. The concentration of test compound in each aliquot is determined by HPLC after preparation and as compared to a standard concentration of test compound, such preparations and determinations are well known and appreciated in the art. The rate of disappearance can be determined from the slope of the initial linear phase of this assay by graphing the change in concentration of test compound vs. time.
(§8) Calibration standards for Compound A were prepared as follows: dissolve 10 mg of Compound A (free base) in methanol (10 mL) to give a 1 mg/mL stock solution. Use acetonitrile to dilute 1 mL of stock solution to 10 mL to give a 100 μg/mL spiking standard and serially dilute the 100 μg/mL solution with acetonitrile to give spiking standards having concentrations of 50, 25, 10, 5, 2.5, and 1.0 μg/mL. Calibration standards having concentrations of 10,000; 5,000; 2,500; 1,000; 500; 250; and 100 ng/mL are prepared in duplicated by adding 20 μL of each spiking standards to 0.2 mL of control S9 supernatant. Blanks and samples each receive 20μL of acetonitrile. […]

Series [2] in a line: Metabolic Stability in Human Liver S9. Format: in vitro ADME. The conditions noted are these: human liver S9, 10 μM initial, 37° C. Here is the method:
as §1, §2, §3, §4, §5, §6, §7, §8

For `COc1cc(C(=O)N2CCC(CCN3CCC(C(N)=O)(c4ccccc4)CC3)(c3ccc(Cl)c(Cl)c3)C2)cc(OC)c1OC.Cl` (single isomer, unassigned; (+)) [Compound C, (+)-1-(2-(3-(3,4-dichloro-phenyl)-1-(3,4,5-trimethoxy-benzoyl)-pyrrolidin-3-yl)-ethyl)-4-phenyl-piperidine-4-carboxylic acid amide hydrochloride], the concentration stood at 6.3 µg/mL in series [1] (1 min); 6.0 µg/mL in series [1] (3 min); 5.3 µg/mL in series [1] (5 min); 4.8 µg/mL in series [1] (10 min); 4.0 µg/mL in series [1] (15 min); 3.8 µg/mL in series [1] (30 min). The concentration in series [1] (60 min) is 3.5 µg/mL; in series [2] (1 min), 6.2 µg/mL; in series [2] (3 min) it was 5.6 µg/mL; in series [2] (5 min) it was 5.9 µg/mL; in series [2] (10 min), 5.2 µg/mL; in series [2] (15 min), 4.5 µg/mL. In addition, the results for the concentration in series [2] (30 min) and in series [2] (60 min) were 3.2 µg/mL and 2.5 µg/mL, respectively.

Values taken from US5861417A, “Heterocyclic substituted pyrrolidine amide derivatives” (Hoechst Marion Roussel, Inc., priority 1997, dated 1999).
